Assay [1] in a line: Chronic weight loss study in diet-induced obese (DIO) rats. In kind it is in vivo, rat. The protocol: DIO rats were sorted into treatment groups based on body weight, total kilocalories consumed, and body composition (via echo MRI). […] To assess the importance of compensatory over-eating in drug-treated animals, a subgroup of rats that received 5 mg/kg of dapagliflozin was restricted to the food intake of the placebo group. Body weight and the weight of both diets were determined daily. Respiratory quotient data were obtained on days 2 and 15 of the study, echo MRI was obtained on day 22, and blood was collected for a fasting clinical chemistry tests on day 27.
Percent weight changes were calculated as […].
The weight loss study with Compound IIIA (0.1, 0.3, 1, and 3 mg/kg) was performed using the same methods as the Dapagliflozin study.

Assay [2] in a line: 12-week once-daily oral treatment of treatment naive type II diabetes mellitus patients (glucosuria, body weight, BMI). The conditions noted are these: type II diabetic patients, each dose group, 12 weeks. In kind it is in vivo, human. Here is the method: Treatment naive type II diabetes mellitus patients, n=389, with inadequate blood glycemic control and low mean glucosuria at baseline were given once-daily oral treatments with dapagliflozin (2.5, 5, 10, 20, or 50 mgs), metformin XR® (750 mg titrated to 1500 mgs), or placebo over 12-weeks.

The procedure of assay [3]: Patients with type 2 diabetes were treated with placebo, 5 mg dapagliflozin propylene glycol, 25 mg dapagliflozin propylene glycol, or 100 mg dapagliflozin propylene glycol.

With `CCc1ccc(Cc2cc([C@@H]3O[C@H](CO)[C@@H](O)[C@H](O)[C@H]3O)ccc2Cl)cc1` [Compound IIIA, (2S,3R,4R,5S,6R)-2-(4-chloro-3-(4-ethylbenzyl)phenyl)-6-(hydroxymethyl)tetrahydro-2H-pyran-3,4,5-triol], in assay [1] (DIO rats, 0.1, 0.3, 1 and 3 mg/kg daily over 25 days (FIG. 5)), the weight loss result is “significant weight loss in diet-induced obese rats in a dose proportional manner”.
For `CCOc1ccc(Cc2cc([C@@H]3O[C@H](CO)[C@@H](O)[C@H](O)[C@H]3O)ccc2Cl)cc1` [Dapagliflozin-PGS, dapagliflozin propylene glycol hydrate], the “weight loss when compound-induced overeating was prevented (pair fed to vehicle group)” value in assay [1] (DIO rats, 5 mg/kg subgroup restricted to food intake of placebo group (FIG. 4)) is “weight loss was greater”. Besides, the “weight loss versus vehicle” value in assay [1] (DIO rats, oral 0.5, 1 and 5 mpk daily over 25 days, p<0.05 (FIG. 4)) was “significant weight loss”. In addition, the “proportion of patients achieving a 5% weight reduction versus placebo” value in assay [2] is given as “higher proportion”. The “glucosuric effects: loss of calories in the urine (glucose excretion/day)” value in assay [3] (healthy subjects, single doses 5, 20, 50 or 100 mg, indirect comparison versus GSK 869,682 (FIG. 1)) is recorded as “significant loss of calories in the urine”. The “24-hour urine glucose excretion compared to placebo” value in assay [3] (subjects with type 2 diabetes, 5 mg, 25 mg and 100 mg, 14-day study (FIG. 2)) was “significantly higher urine glucose excretion”.
